Measurements taken from patent US20110008433A1, “Herbal Composition for Osteoarthritis” (priority 2009, published 2011).
Values joined by “and” are separate entries in the source; they are usually repeats but may differ in a detail not shown here. Equal entries are not always repeated.

Key:
[1] = Free radical scavenger, SOD mimetic activity (xanthine/xanthine oxidase, NBT); assay type: biochemical
Method: SO101C or vehicle was incubated with 0.12 mM xanthine, 6 mU xanthine oxidase, 27 μM nitroblue tetrazolium (NBT), 0.11 mM EDTA, 0.005% bovine serum albumin and Na2CO3 at pH 10.5 at 25° C. for 20 minutes. Conversion of xanthine to uric acid +O^−+NBT to formazan was then determined by measurement of absorbance at 595 nm and percent inhibition by superoxide dismutase or test compound was calculated.

[2] = biological target: T1, MMP-2 (Homo sapiens, UniProt P08253); assay: Inhibition of MMP-2 activity in cell free system, gelatin zymography; assay type: biochemical; details: for MMP-2 activity (% of control): 24 hours
T1 construct: Serum free culture supernatant of confluent human dermal fibroblast was used as the source of MMP; endogenous in cells; host or cells: human dermal fibroblasts, serum-free culture supernatant
T1 sequence (P08253 110-660): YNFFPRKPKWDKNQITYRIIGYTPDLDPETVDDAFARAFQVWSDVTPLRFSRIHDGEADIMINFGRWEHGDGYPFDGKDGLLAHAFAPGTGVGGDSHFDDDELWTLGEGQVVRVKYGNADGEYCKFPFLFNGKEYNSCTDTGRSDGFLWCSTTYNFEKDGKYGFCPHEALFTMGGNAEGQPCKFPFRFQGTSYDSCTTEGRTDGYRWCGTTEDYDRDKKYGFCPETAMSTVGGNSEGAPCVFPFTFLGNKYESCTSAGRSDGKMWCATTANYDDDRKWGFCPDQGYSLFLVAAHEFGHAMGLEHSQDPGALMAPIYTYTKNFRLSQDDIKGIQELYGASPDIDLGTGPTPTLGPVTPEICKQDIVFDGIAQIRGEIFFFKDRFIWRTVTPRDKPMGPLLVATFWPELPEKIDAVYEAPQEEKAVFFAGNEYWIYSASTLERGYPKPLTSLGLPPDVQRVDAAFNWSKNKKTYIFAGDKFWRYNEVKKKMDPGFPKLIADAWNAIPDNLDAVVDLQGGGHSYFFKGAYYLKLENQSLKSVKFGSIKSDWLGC
Method: Serum free culture supernatant of confluent human dermal fibroblast was used as the source of MMP. Equal amount of the supernatant treated with equal volume of 2 fold concentration of SDS sample buffer without reducing agent was subjected to electrophoresis The samples were loaded into each well of a 10% SDS polyacrylamide gel containing 1 mg/ml of bovine gelatin (Sigma), and run at 20 mA in ice bath by a BioRad Mini Protean gel apparatus. After dye front reached the bottom of the gel, the gel was washed three times, 15 minutes each, with 2.5% Triton X-100. Then, the gel was sliced and incubated in developing buffer (50 mM Tris-HCl, pH7.6, 10 mM CaCl2, 50 mM NaCl, 0.05% Brij35) containing SO101C or EDTA or vehicle at 37° C. for 24 hours. The gel was stained with 0.1% Coomassie blue R250 (Sigma) in 40% methanol and 10% acetic acid, and destained in 30% methanol and 7% acetic acid. The enzyme digested clear bands were visualized in the blue background. The comparison of the enzymatic activities (clear band width) was analyzed by Image J (NIH).

[3] = test system: chondrocytes; assay: ALP, collagen and GAGs synthesis in chondrocytes in micromass culture (staining), without or with H2O2; assay type: cell-based, Human; details: 1 mM; same experimental conditions
Method: Human articular cartilage was obtained from patients who received total joint replacement with consent. The cartilage was digested with 1 mg/ml of Class 2 and Class 4 bacterial collagenase (Worthington Chemical, Freehold, N.J.) in DMEM containing 10% fetal calf serum (FCS) and 25 μg/ml Gentamicin (C-DMEM, Gibco, Grand Island, […]) at 37° C. overnight. […] Ten μl of 1×10^7 cells/ml in C-DMEM was seeded into the center of each well of 48 multiwell culture dish (Nunc, Roskilde, Danmark). […] The media were changed twice a week for two weeks. At the end of the incubation, the media were changed with fresh DMEM. Twenty-four hours later, the media were collected for MMP zymography study and cells were fixed and stained for alkaline phosphatase (ALP), collagen or glycosaminoglycan using Naphthol AS-MX phosphate/Fast red, Sirius red, or Safranin O (Sigma), respectively.

[4] = test system: Human bone marrow mesenchymal stem cells; assay: ALP, collagen and GAGs synthesis in bone marrow mesenchymal stem cells in micromass culture (staining); assay type: cell-based; details: 1 mM; same experimental conditions
Method: Human bone marrow mesenchymal stem cells were obtained from patients receiving total joint replacement with consent. […] Ten μl of 1×10^7 cells/ml in C-DMEM was seeded into the center of each well of 48 multiwell culture dish (Nunc, Roskilde, Danmark). […] The media were changed twice a week for two weeks. At the end of the incubation, cells were fixed and stained for alkaline phosphatase (ALP), collagen or glycosaminoglycan using Naphthol AS-MX phosphate/Fast red, Sirius red, or Safranin O (Sigma), respectively.

[5] = test system: MMP-2; assay: MMP-2 activities of treated chondrocyte culture supernatants, gelatin zymography; assay type: cell-based, Human; details: 1 mM; chondrocytes treated 2 weeks
Method: Ten μl of 1×10^7 cells/ml in C-DMEM was seeded into the center of each well of 48 multiwell culture dish (Nunc, Roskilde, Danmark). Two hours later, 250 μl of F12/DMEM containing 5% FCS, 6.25 μg/ml bovine insulin, 25 μg/ml ascorbic acid and 100 nM Dexamethasone (induction medium) with various concentrations of herbal composition or glucosamine (Sigma) was added. The media were changed twice a week for two weeks. At the end of the incubation, the media were changed with fresh DMEM.
Equal amount of protein of each culture medium was mixed with equal volume of 2 fold concentration of non-reducing SDS sample buffer, and incubated at room temperature for two hours for sample to denature. The samples were loaded into each well of a 10% SDS polyacrylamide gel containing 1 mg/ml of bovine gelatin (Sigma), and run at 20 mA in ice bath by a BioRad Mini Protean gel apparatus. After dye front reached the bottom of the gel, the gel was washed three times, 15 minutes each, with 2.5% Triton X-100. Then, the gel was renatured in developing buffer (50 mM Tris-HCl, pH7.6, 10 mM CaCl2, 50 mM NaCl, 0.05% Brij35) at 37° C. for 24 hours. The gel was stained with 0.1% Coomassie blue R250 (Sigma) in 40% methanol and 10% acetic acid, and destained in 30% methanol and 7% acetic acid. […] The comparison of the enzymatic activities (clear band width) was analyzed by Image J (NIH).

[6] = test system: human chondrocytes; assay: Gene expression of chondrocytes (RT-PCR, normalized by β-Actin); assay type: cell-based; details: 2 weeks
Method: Reverse transcription was carried out at 37° C. for one hour by a programmable thermal controller (PTC-100, MJ Research, Inc., Watertown, Mass.). Reaction was terminated by raising the temperature to 93° C. for five minutes. PCR was performed in a thermal controller (PTC-100, MJ Research, Inc., Watertown, Mass.) with master mix (HotStarTaq DNA polymerase, Qiagen) at initial denaturation at 95° C. for 15 minutes, followed by 25 cycles of 94° C. for 1 minute, 58° C. for 40 seconds, and 72° C. for 40 seconds. The final cycle extended 72° C. for 10 minutes. The PCR products accompanied by 100 bp ET marker were separated by 1.2% agarose gel, stained with ethidium bromide and visualized under UV light. A Polaroid picture was taken by Foto/Phoresis UV documentation system (Fotodyne Inc.). Beta-actin expression under the same experimental conditions was used as a reference to normalize the expressions. The comparison of bend width of PCR was analyzed by Image J (NIH) after normalized by the expression of β-Actin.

[7] = 2,2-diphenyl-1-picrylhydrazyl (DPPH) radical scavenging activity; details: for Absorbance at 517 nm, Sample 1 to 3: 30 minutes, single samples; for Absorbance at 517 nm, Average: control 0.963
Method: SO101C, vitamin C or vitamin E at various concentrations were incubated with 0.4 mM 2,2-diphenyl-1-picrylhydrazyl (DPPH, Sigma) in ethanol at room temperature for 30 minutes. Absorbance at 517 nm was measured by a spectrophotometer.

[8] = biological target: T2, MMP-3 (stromelysin-1, human recombinant catalytic domain) (Homo sapiens, UniProt P08254); assay: Inhibition of MMP-3 enzyme activity, fluorogenic substrate; assay type: biochemical
T2 construct: MMP-3 (stromelysin-1, human recombinant catalytic domain from Calbiochem Cat. 444217); purchased Calbiochem 444217
T2 sequence (P08254 100-272 limits assumed): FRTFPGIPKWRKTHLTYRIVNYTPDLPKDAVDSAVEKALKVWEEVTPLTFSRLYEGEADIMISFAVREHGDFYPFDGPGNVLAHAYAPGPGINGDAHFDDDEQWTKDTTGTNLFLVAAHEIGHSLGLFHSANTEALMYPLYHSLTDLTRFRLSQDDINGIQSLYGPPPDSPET
Method: (§1) MMP-3 (stromelysin-1, human recombinant catalytic domain from Calbiochem Cat. 444217) was activated by p-aminophenylmercuric acetate for 60 minutes at 37° C. After preincubation of SO101C or vehicle with the activated enzyme (5 nM) in a reaction mixture containing 50 mM MOPS (pH 7.2), 10 mM CaCl2 and 10 μM ZnCl2 at 37° C. for 60 minutes, the reaction was initiated by addition of 4 μM (7-methoxycoumarin-4-yl)acetyl-Pro-Leu-Gly-Leu-N-3-(2,4-dinitrophenyl)-L-2,3-diaminopropinoyl-Ala-Arg-NH2 and incubated for a further 120 minutes at 37° C. Enzyme activity was determined spectrofluorometrically by measuring the formation of fluorescent (7-methoxycoumarin-4-yl)acetyl-Pro-Leu-Gly.

[9] = biological target: T3, MMP-13 (human recombinant) (Homo sapiens, UniProt P45452); assay: Inhibition of MMP-13 enzyme activity, fluorogenic substrate; assay type: biochemical
T3 construct: purchased Calbiochem 444248; host or cells: Sf9
Method: as §1, with “MMP-13 proenzyme (human recombinant, expressed in Sf9 cell,” for “MMP-3 (stromelysin-1, human recombinant catalytic domain from”, “444248)” for “444217)”, “with the activated enzyme (0.5” for “(5”, “ZnCl2 for 60 minutes” for “ZnCl2”, “C.,” for “C. for 60 minutes,”

[10] = Anti-lipid peroxidation activity (malondialdehyde/thiobarbituric acid); assay type: biochemical, Mouse; details: for OD (A532-A600): control (0) 0.973
Method: Mouse brain KCl extract was used as the source of lipid. Brain extract was incubated with 1 mM FeSO4 and 0.1 mM vitamin C at 37° C. for 90 minutes. The malondialdehyde formed by peroxyl radical was reacted with thiobarbituric acid to form an adduct that absorbed at 532 nm after centrifugation to discard TCA precipitation.

O=C(O[C@@H]1Cc2c(O)cc(O)cc2O[C@@H]1c1ccc(O)c(O)c1)c1cc(O)c(O)c(O)c1 [(−)-Epicatechin gallate]
Inhibition (%) ([1]; 6.1 μM): 50% | IC50 ([1]; read-out: Concentration giving 50 % inhibition (SOD mimetic assay)): 6100 nM

O=C(O)CN(CCN(CC(=O)O)CC(=O)O)CC(=O)O [EDTA]
inhibition of MMP-2 activity in cell free system (in words) [2]: showed dose dependent inhibition | MMP-2 activity (% of control) ([2]; 0.1 mM): 46.6 % of control | MMP-2 activity (% of control) ([2]; 0.3 mM): 30.5 % of control

N[C@H]1C(O)O[C@H](CO)[C@@H](O)[C@@H]1O (stereo partly drawn) [Glucosamine, glucosamine]
effects on ALP, collagen and GAGs in chondrocytes (in words) [3]: did not show significant effects | effect on ALP, collagen and GAGs in bone marrow mesenchymal stem cells (in words) [4]: did not show significant effect | MMP-2 activity (% of control) Active form (66K) [5]: 118.2 % of control | MMP-2 activity (% of control) Latent form (72K) [5]: 92.5 % of control | Gene expression (% of control) ALP ([6]; 1 mM): 180.0 % of control | Gene expression (% of control) Aggrecan ([6]; 1 mM): 133.7 % of control | Gene expression (% of control) Aggrecanase ([6]; 1 mM): 130.9 % of control | Gene expression (% of control) BMP-2 ([6]; 1 mM): 173.4 % of control | Gene expression (% of control) Col II ([6]; 1 mM): 162.4 % of control | Gene expression (% of control) TGF-β ([6]; 1 mM): 120.9 % of control | expression of cartilage metabolism related genes (in words) ([6]; SO101C 0.01 mg/ml or glucosamine 1 mM): stimulated the expression of most of the cartilage metabolism related genes

O=C1O[C@H]([C@@H](O)CO)C(O)=C1O [Vitamin C, vitamin C]
Inhibition (%) ([7]; 0.01 mM): 19.5% | Absorbance at 517 nm, Sample 1 to 3 ([7]; 0.01 mM): 0.753 and 0.790 and 0.781 | Absorbance at 517 nm, Average ([7]; 0.01 mM): 0.775 | Inhibition (%) ([7]; 0.03 mM): 64.8% | Absorbance at 517 nm, Sample 1 to 3 ([7]; 0.03 mM): 0.321 and 0.362 and 0.333 | Absorbance at 517 nm, Average ([7]; 0.03 mM): 0.339 | Inhibition (%) ([7]; 0.1 mM): 92.5% | Absorbance at 517 nm, Sample 1 to 3 ([7]; 0.1 mM): 0.068 and 0.079 | Absorbance at 517 nm, Average ([7]; 0.1 mM): 0.072

TIMP-1: reference agent in the MMP-3 and MMP-13 inhibition tables
Inhibition (%) ([8]; 0.0076 μM): 50% | IC50 ([8]; read-out: Concentration giving 50 % inhibition of MMP-3): 7.6 nM | Inhibition (%) ([9]; 0.0068 μM): 50% | IC50 ([9]; read-out: Concentration giving 50 % inhibition of MMP-13): 6.8 nM

vitamin E
Inhibition (%) ([7]; 0.01 mM): 30.6% | Absorbance at 517 nm, Sample 1 to 3 ([7]; 0.01 mM): 0.647 and 0.688 and 0.668 | Absorbance at 517 nm, Average ([7]; 0.01 mM): 0.668 | Inhibition (%) ([7]; 0.03 mM): 76.9% | Absorbance at 517 nm, Sample 1 to 3 ([7]; 0.03 mM): 0.213 and 0.208 and 0.245 | Absorbance at 517 nm, Average ([7]; 0.03 mM): 0.222 | Inhibition (%) ([7]; 0.1 mM): 77.5% | Absorbance at 517 nm, Sample 1 to 3 ([7]; 0.1 mM): 0.204 and 0.241 and 0.205 | Absorbance at 517 nm, Average ([7]; 0.1 mM): 0.217 | inhibition of lipid peroxidation (in words) [10]: dose dependently inhibited lipid peroxidation | OD (A532-A600) ([10]; 0.003 mM): 0.844 | OD (A532-A600) ([10]; 0.01 mM): 0.697 | OD (A532-A600) ([10]; 0.03 mM): 0.526
